One block for each molecule: values may come before it.
Assays:
[1] = target: T1, SthA (UdhA), soluble pyridine nucleotide transhydrogenase (Escherichia coli, UniProt P27306); experiment: absorbance spectrum of purified holoenzyme (A280/[…]); format: binding; conditions: bound prosthetic group copurified; 20 μM FAD in lysis buffer
[2] = target: T1, SthA (UdhA), soluble pyridine nucleotide transhydrogenase; experiment: thioNADPH formation rate at […] nm; format: biochemical; conditions: activator; 1.0 mM NADH, 0.15 mM thioNADP+, 50 mM Tris pH 7.5, 30 °C
[3] = target: SthA (UdhA), soluble pyridine nucleotide transhydrogenase (Escherichia coli, UniProt P27306, C45A); experiment: stopped-flow flavin reduction at […] nm, kobs vs NADH; format: biochemical; conditions: apparent; reductive half-reaction, anaerobic, 25 °C, no NADP+; 50 mM Tris pH 7.5
[4] = target: T1, SthA (UdhA), soluble pyridine nucleotide transhydrogenase; experiment: thioNADPH formation at […] nm, substrate-inhibition fit; format: biochemical; conditions: 50 mM Tris pH 7.5, 30 °C
[5] = target: SthA (UdhA), soluble pyridine nucleotide transhydrogenase (Escherichia coli, UniProt P27306, T50C); experiment: stopped-flow flavin reduction at […] nm, kobs vs NADH; format: biochemical; conditions: apparent; reductive half-reaction, anaerobic, 25 °C, no NADP+; 50 mM Tris pH 7.5
[6] = target: T1, SthA (UdhA), soluble pyridine nucleotide transhydrogenase; experiment: as above; format: biochemical; conditions: apparent; reductive half-reaction, anaerobic, 25 °C, no NADP+; 50 mM Tris pH 7.5
[7] = substrate: NC(=S)c1ccc[n+]([C@@H]2O[C@H](COP(=O)(O)OP(=O)(O)OC[C@H]3O[C@@H](n4cnc5c(N)ncnc54)[C@H](OP(=O)(O)O)[C@@H]3O)[C@@H](O)[C@H]2O)c1; experiment: purified protein; format: biochemical, Escherichia coli; conditions: transhydrogenase reaction, 10.0 mM NADH, 50 mM Tris pH 7.5, 30 °C
[8] = substrate: NC(=O)C1=CN([C@@H]2O[C@H](COP(=O)(O)OP(=O)(O)OC[C@H]3O[C@@H](n4cnc5c(N)ncnc54)[C@H](OP(=O)(O)O)[C@@H]3O)[C@@H](O)[C@H]2O)C=CC1; experiment: purified protein; format: biochemical, Escherichia coli; conditions: oxidase (uncoupling) reaction, 0.2 mM O2, no NAD(P)+, 50 mM Tris pH 7.5, 30 °C
[9] = target: the molecule itself; experiment: dynamic light scattering; purified SthA (>1 mg/ml) in a microcuvette, DynaPro Nanostar, 20 °C, three independent purification batches; oligomer size from the hydrodynamic radius

SthA (UdhA), soluble pyridine nucleotide transhydrogenase (Escherichia coli, UniProt P27306, C45A), sequence (P27306 2-466 C45A): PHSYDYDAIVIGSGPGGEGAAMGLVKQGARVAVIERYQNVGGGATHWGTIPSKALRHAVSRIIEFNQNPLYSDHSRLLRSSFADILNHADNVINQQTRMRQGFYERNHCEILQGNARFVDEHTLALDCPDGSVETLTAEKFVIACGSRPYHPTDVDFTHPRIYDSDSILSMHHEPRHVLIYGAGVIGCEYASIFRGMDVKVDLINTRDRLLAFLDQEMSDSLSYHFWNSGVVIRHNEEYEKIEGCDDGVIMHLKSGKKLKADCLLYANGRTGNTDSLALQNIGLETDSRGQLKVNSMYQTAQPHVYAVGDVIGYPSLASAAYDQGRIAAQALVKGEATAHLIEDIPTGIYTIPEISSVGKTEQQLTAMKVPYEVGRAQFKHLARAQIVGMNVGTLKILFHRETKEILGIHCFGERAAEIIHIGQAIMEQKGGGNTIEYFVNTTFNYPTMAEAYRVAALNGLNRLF
SthA (UdhA), soluble pyridine nucleotide transhydrogenase (Escherichia coli, UniProt P27306, T50C), sequence (P27306 2-466 T50C): as the sequence (P27306 2-466 C45A) above, with A44C, T49C counted along it

Molecule: Cc1cc2nc3c(=O)[nH]c(=O)nc-3n(C[C@H](O)[C@H](O)[C@H](O)COP(=O)(O)OP(=O)(O)OC[C@H]3O[C@@H](n4cnc5c(N)ncnc54)[C@H](O)[C@@H]3O)c2cc1C [FAD]
absorbance spectrum of purified holoenzyme (A280/450) [1]: absorbance spectrum of the purified protein indicated the presence of bound oxidized FAD

Molecule: Nc1ncnc2c1ncn2[C@@H]1O[C@H](COP(=O)(O)O)[C@@H](O)[C@H]1O [AMP]
% activity at 5.0 mM [2]: all three adenine nucleotides increased the rate of thioNADPH formation

Molecule: Nc1ncnc2c1ncn2[C@@H]1O[C@H](COP(=O)(O)OP(=O)(O)OP(=O)(O)O)[C@@H](O)[C@H]1O [ATP]
% activity at 5.0 mM [2]: all three adenine nucleotides increased the rate of thioNADPH formation

Kd [3]: 300 ± 100 µM
KI ([4]; 0.5 mM thioNADP+): 12100 ± 2000 µM
Kd [5]: 227 ± 61 µM
Kd [6]: 88 ± 27 µM
Molecule: NC(=O)C1=CN([C@@H]2O[C@H](COP(=O)(O)OP(=O)(O)OC[C@H]3O[C@@H](n4cnc5c(N)ncnc54)[C@H](O)[C@@H]3O)[C@@H](O)[C@H]2O)C=CC1 [NADH]

KI ([4]; 10.0 mM NADH): 590 ± 260 µM
Molecule: NC(=S)c1ccc[n+]([C@@H]2O[C@H](COP(=O)(O)OP(=O)(O)OC[C@H]3O[C@@H](n4cnc5c(N)ncnc54)[C@H](OP(=O)(O)O)[C@@H]3O)[C@@H](O)[C@H]2O)c1 [thioNADP+]

Molecule: Nc1ncnc2c1ncn2[C@@H]1O[C@H](COP(=O)(O)OP(=O)(O)O)[C@@H](O)[C@H]1O [ADP]
% activity at 5.0 mM [2]: ADP was the best reaction activator, followed by AMP and ATP, respectively.

B1: SthA (UdhA), soluble pyridine nucleotide transhydrogenase (Escherichia coli K-12) (protein)
chain: PHSYDYDAIVIGSGPGGEGAAMGLVKQGARVAVIERYQNVGGGCTHWGTIPSKALRHAVSRIIEFNQNPLYSDHSRLLRSSFADILNHADNVINQQTRMRQGFYERNHCEILQGNARFVDEHTLALDCPDGSVETLTAEKFVIACGSRPYHPTDVDFTHPRIYDSDSILSMHHEPRHVLIYGAGVIGCEYASIFRGMDVKVDLINTRDRLLAFLDQEMSDSLSYHFWNSGVVIRHNEEYEKIEGCDDGVIMHLKSGKKLKADCLLYANGRTGNTDSLALQNIGLETDSRGQLKVNSMYQTAQPHVYAVGDVIGYPSLASAAYDQGRIAAQALVKGEATAHLIEDIPTGIYTIPEISSVGKTEQQLTAMKVPYEVGRAQFKHLARAQIVGMNVGTLKILFHRETKEILGIHCFGERAAEIIHIGQAIMEQKGGGNTIEYFVNTTFNYPTMAEAYRVAALNGLNRLF
Km [7]: 120 ± 40 µM
kcat [7]: 15.3 ± 3.1 s⁻¹
kcat/Km [7]: 128000 M⁻¹ s⁻¹
Km [8]: 91.8 ± 30.5 µM
kcat [8]: 0.2 ± 0.03 s⁻¹
kcat/Km [8]: 2200 M⁻¹ s⁻¹

B2: soluble pyridine nucleotide transhydrogenase SthA from Escherichia coli K-12 (enzyme, E. coli K-12, UniProt P27306 1-466, looked up)
chain: MPHSYDYDAIVIGSGPGGEGAAMGLVKQGARVAVIERYQNVGGGCTHWGTIPSKALRHAVSRIIEFNQNPLYSDHSRLLRSSFADILNHADNVINQQTRMRQGFYERNHCEILQGNARFVDEHTLALDCPDGSVETLTAEKFVIACGSRPYHPTDVDFTHPRIYDSDSILSMHHEPRHVLIYGAGVIGCEYASIFRGMDVKVDLINTRDRLLAFLDQEMSDSLSYHFWNSGVVIRHNEEYEKIEGCDDGVIMHLKSGKKLKADCLLYANGRTGNTDSLALQNIGLETDSRGQLKVNSMYQTAQPHVYAVGDVIGYPSLASAAYDQGRIAAQALVKGEATAHLIEDIPTGIYTIPEISSVGKTEQQLTAMKVPYEVGRAQFKHLARAQIVGMNVGTLKILFHRETKEILGIHCFGERAAEIIHIGQAIMEQKGGGNTIEYFVNTTFNYPTMAEAYRVAALNGLNRLF
notes: Soluble pyridine nucleotide transhydrogenase SthA (UdhA) of E. coli K-12; protomer with a calculated molar mass of around 54 kDa; No removal of the His tag is described; also called UdhA; soluble transhydrogenase
stoichiometry N [9]: 8
